Data from patent publication US20130337564A1, “Treatment of Pluripotent Cells” (Janssen Biotech, Inc., priority 2012, published 2013).
Values joined by “and” are separate entries in the source; they are usually repeats but may differ in a detail not shown here. Identical values can stand only once.

Columns and labels:
Format in all cases: cell-based
[1] = tested on: HNF-3beta expression in human embryonic stem cells (H9 line); assay: High content screening assay: HNF-3beta protein expression (differentiation); conditions: for HNF-3b Expression Fold over Wnt 3a/AA control: total intensity normalised to Wnt 3a/AA control; for fold induction at 10 µM: Homo sapiens, Embryonic stem cell, read-out: HNF3β Expression, Fold over Wnt 3a/AA control
Procedure, shortened: (§1)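 H9 hESCs on MATRIGEL treated days 1-2 with 10 μM compound in DMEM:F12, 0.5% FCS, 100 ng/ml activin A; days 3-4 with 2% FCS plus activin A without compound. Fixed cells immunostained for Sox17 or HNF-3beta with Draq5 nuclear counterstain. Cell number and staining intensity quantified by high-content imaging, 12 fields/well.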

[2] = tested on: Sox17 expression in human embryonic stem cells (H9 line); assay: High content screening assay: Sox17 protein expression (differentiation); conditions: for SOX-17 Expression Fold over Wnt 3a/AA control: total intensity normalised to Wnt 3a/AA control; for fold induction at 10 µM: Homo sapiens, Embryonic stem cell, read-out: SOX17 Expression, Fold over Wnt 3a/AA control
Procedure, shortened: as §1

[3] = tested on: human embryonic stem cells (H9 or H1 lines); assay: Plate reader (MTS) proliferation assay; conditions: for activity at 10 µM: Homo sapiens, Embryonic stem cell, 96 h; for Average: average of replicate raw data; for Raw Data: replicate wells, plate reader proliferation screen of GSK-3B inhibitors; for Average (of Raw Data): plate reader raw signal, mean of replicate wells
Procedure, shortened: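 H9 or H1 cells on Matrigel, washed, then given DMEM:F12 with 0.5% FCS, 100 ng/ml activin A and 10 μM compound (days 1–2), then 2% FCS plus activin A (days 3–4). MTS added day 4, OD490 read after 1.5–4 h at 37 °C; triplicates as percent of activin A/Wnt3a control.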

[4] = 10 μM test compound with 100 ng/ml activin A on days 1-2, MTS OD490 on day 4, vs Activin A/Wnt3a positive control, strong and moderate hits
[5] = relative to AA/Wnt3a/DMSO positive control (100.0) of the same plate
[6] = 10 μM test compound with 100 ng/ml activin A on days 1-2, H9, total intensity by IN Cell Analyzer, strong and moderate hits
[7] = proliferation of human embryonic stem cells
[8] = proliferation of human embryonic stem cells, AA/Wnt3a = 100.0, no cells = 0.0

Compound	HNF-3b Expression Total Intensity [1]	SOX-17 Expression Total Intensity [2]	activity at 10 µM [3, 4]	Average [3]	fold induction at 10 µM [1, 6]	fold induction at 10 µM [2, 6]	other results
O=C(Nc1ccc(C(=O)N2CC3CSCCN3Cc3ccccc32)c(Cl)c1)c1cc(Cl)cc(Cl)c1 (stereo not shown) [Compound 166, 3,5-Dichloro-N-[3-chloro-4-(3,4,12,12a-tetrahydro-1H-[1,4]thiazino[3,4-c][1,4]benzodiazepin-11(6H)-ylcarbonyl)phenyl]benzamide]	10743082	11388240	180%	1.6794	–	–	–
O=C1NC(=O)C2=C1c1cn(c3ncccc13)CCOCCOCCOCCOCCOCCn1cc2c2cccnc21 [Compound 168, 10,11,13,14,16,17,19,20,22,23,25,26-Dodecahydro-1H-9,4:27,32-di(metheno)dipyrido[2,3-q:3′,2′-w]pyrrolo[3,4-t][1,4,7,10,13,16,25]pentaoxadiazacycloheptacosine-1,3(2H)-dione]	2584708	2574279	–	0.3421	–	–	HNF-3b Expression Fold over Wnt 3a/AA control [1]: 0.0943 fold; SOX-17 Expression Fold over Wnt 3a/AA control [2]: 0.0837 fold; % Control [3, 5]: 36.8%; Raw Data [3]: 0.3702 and 0.3193 and 0.3368
O=C1NC(=O)C2=C1c1cn(c3ncccc13)CCOCCOCCOCCOCCn1cc2c2cccnc21 [Compound 169]	–	–	–	0.7138	–	–	HNF3β Expression, Fold over Wnt 3a/AA control [1, 6]: 0.9520 Fold over Wnt 3a/AA control; SOX17 Expression, Fold over Wnt 3a/AA control [2, 6]: 1.0342 Fold over Wnt 3a/AA control; % Control Value (proliferation) [3, 4]: 76.7%; Average (of Raw Data) [3, 7]: 0.3354; % Control [3, 8]: 24.4%; Raw Data [3]: 0.5876 and 0.6384 and 0.9154
CN(C)CCCn1cc(C2=C(c3cccc4ccccc34)C(=O)NC2=O)c2cccnc21 [Compound 175, 3-{1-[3-(Dimethylamino)propyl]-1H-pyrrolo[2,3-b]pyridin-3-yl}-4-naphthalen-1-yl-1H-pyrrole-2,5-dione]	1605538	0	–	0.1467	–	–	–
O=C1NC(=O)C2=C1c1cn(c3ncccc13)CCOCCOCCn1cc2c2cccnc21 [Compound 180, 6,7,9,10,12,13-Hexahydro-20H-5,23:14,19-di(metheno)dipyrido[2,3-h:3′,2′-n]pyrrolo[3,4-k][1,4,7,16]dioxadiazacyclooctadecine-20,22(21H)-dione]	101114	0	–	0.1247	–	–	HNF-3b Expression Fold over Wnt 3a/AA control [1]: 0.0037 fold; SOX-17 Expression Fold over Wnt 3a/AA control [2]: 0.0000 fold; Average (of Raw Data) [3, 7]: 0.3793; % Control [3, 8]: 29.3%; % Control [3, 5]: 13.4%; Raw Data [3]: 0.1239 and 0.1233 and 0.1269
O=C1NC(=O)C(c2cn(CCCO)c3ncccc23)=C1c1cn(CCCO)cn1 [Compound 182, 3-[1-(3-Hydroxypropyl)-1H-imidazol-4-yl]-4-[1-(3-hydroxypropyl)-1H-pyrrolo[2,3-b]pyridin-3-yl]-1H-pyrrole-2,5-dione]	8880858	0	–	0.2828	–	–	–
O=C1NC(=O)C(c2cn(CCCO)c3ncccc23)=C1c1cn(CCO)cn1 [Compound 183, 3-[1-(2-Hydroxyethyl)-1H-imidazol-4-yl]-4-[1-(3-hydroxypropyl)-1H-pyrrolo[2,3-b]pyridin-3-yl]-1H-pyrrole-2,5-dione]	170177	48154	–	0.2321	–	–	–
O=C1NC(=O)C(c2cn(CCCO)c3ncccc23)=C1c1ccn(CCCO)n1 [Compound 185, 3-[1-(3-Hydroxypropyl)-1H-pyrazol-3-yl]-4-[1-(3-hydroxypropyl)-1H-pyrrolo[2,3-b]pyridin-3-yl]-1H-pyrrole-2,5-dione]	–	–	–	0.2632	0.865	0.889	–
CN(CCO)CCCn1nc(C2=C(c3cn(-c4cccnc4)c4ccccc34)C(=O)NC2=O)c2ccccc21 [Compound 198, 3-(1-{3-[(2-Hydroxyethyl)(methyl)amino]propyl}-1H-indazol-3-yl)-4-(1-pyridin-3-yl-1H-indol-3-yl)-1H-pyrrole-2,5-dione]	61161468	20866647	70.7%	1.1253	–	–	–
O=C1NC(=O)C(c2cn(-c3cccnc3)c3ccccc23)=C1c1cn(CCO)c2ccccc12 [Compound 206, 3-[1-(2-Hydroxyethyl)-1H-indol-3-yl]-4-(1-pyridin-3-yl-1H-indol-3-yl)-1H-pyrrole-2,5-dione]	309900000	223646667	108%	1.7251	1.66	1.74	–
Cn1ccc(C2=C(c3cn(CCCO)c4ncccc34)C(=O)NC2=O)n1 [Compound 209]	143916667	80676667	67.4%	1.0739	0.772	0.628	–
COc1ccccc1C1=C(c2cn(-c3cccnc3)c3ccccc23)C(=O)NC1=O [Compound 216, 3-[2-(Methyloxy)phenyl]-4-(1-pyridin-3-yl-1H-indol-3-yl)-1H-pyrrole-2,5-dione]	306520000	252690000	76.9%	1.1235	–	–	–
Cc1c[nH]c(-c2cnc(NCCNc3ccc(C#N)cn3)nc2-c2ccc(Cl)cc2Cl)n1 [Compound 221, 6-[(2-{[4-(2,4-Dichlorophenyl)-5-(4-methyl-1H-imidazol-2-yl)pyrimidin-2-yl]amino}ethyl)amino]pyridine-3-carbonitrile]	1281000000	1089750000	131%	1.8228	1.16	1.12	Average (of Raw Data) [3, 7]: 0.4291
CC(C)(O)CCn1nc(C2=C(c3cn(-c4cccnc4)c4ccccc34)C(=O)NC2=O)c2ccccc21 [Compound 223, 3-[1-(3-Hydroxy-3-methylbutyl)-1H-indazol-3-yl]-4-(1-pyridin-3-yl-1H-indol-3-yl)-1H-pyrrole-2,5-dione]	540725000	1013360000	129%	1.7982	–	1.04	–
O=C1NC(=O)C(c2nn(CCO)c3ccccc23)=C1c1cn(-c2cncnc2)c2ccccc12 [Compound 226, 3-[1-(2-Hydroxyethyl)-1H-indazol-3-yl]-4-(1-pyrimidin-5-yl-1H-indol-3-yl)-1H-pyrrole-2,5-dione]	329425000	572520000	120%	1.6825	–	0.589	–
O=C1NC(=O)C(c2cn(-c3cncnc3)c3ccccc23)=C1c1cn(CCO)c2ccccc12 [Compound 230, 3-[1-(2-Hydroxyethyl)-1H-indol-3-yl]-4-(1-pyrimidin-5-yl-1H-indol-3-yl)-1H-pyrrole-2,5-dione]	1052345000	1104750000	147%	2.0358	0.95	1.14	–
